From US9532983B2, “Benzofuran compounds, compositions, kits and/or methods thereof” (Savannah State University, priority 2013, dated 2017)
Entries after “also recorded” stand apart in the source; their conditions may differ. Read-outs that look alike come from different tables or passages of the source.

Assays:
VDAC2 = assay: Western blot / densitometry, expression of VDAC2 in MA-10 cells; format: cell-based, mouse; details: increasing concentrations
Procedure: (§1) Mouse Leydig cell line (MA-10) was grown in Waymouth media containing 15% horse serum, 5% fetal bovine serum, and 1× gentamycin, which was replaced with […] G418 (geneticin) for VDAC1 knockdown (ΔVDAC1) MA10 cells. Cells were maintained at 37° C. in a humidified incubator under 5% CO2. To isolate mitochondria, cells were removed from tissue culture plates by gentle scrapping in phosphate-buffered saline at room temperature, incubated in hypotonic buffer (10 mM HEPES, pH 7.4) for 30 to 40 min, and mitochondria were isolated following readily available procedures. The mitochondrial preparation was verified by Western blotting with the cytochrome P450 SCC enzyme (Corgen, Tapai, Taiwan) and calnexin antibodies (Santa Cruz Biotechnology, Inc., Santa Cruz, Calif.).
(§2) Protein (12.5 μg) was separated by 15% SDS-polyacrylamide gel electrophoresis and transferred to a polyvinylidinedifluoride membrane (Millipore Corporation, Billerica, Mass.). The membrane was blocked with 3% nonfat dry milk for 45 min, probed overnight with the primary antibodies, and then incubated with […] goat anti-rabbit or anti mouse IgG (Thermo Fisher Scientific, Waltham, Mass.). Signals were developed with chemiluminescent reagent (Thermo Fisher Scientific). For loading control of all Western blots, the membrane was stained with β-actin antibody, which was previously independently stained with StAR or 3-β-hydroxysteroid dehydrogenase (3βHSD2) or VDAC1 and VDAC2 antiserum. The band intensity was determined by using Image Quant 5.2 (Phosphorimager; GE Healthcare, Chalfont St. Giles, Buckinghamshire, UK). Densitometric calculation may reflect the ratio of σ1 or VDAC2 and β-actin following an established procedure that is readily available.
(§3) In addition, VDAC2 antibody (FIG. 3E) was used to probe and was compared with β-actin expression (FIG. 3F) of the same membrane.

5-HT2B = target: T1, 5-HT2B (Homo sapiens, UniProt P41595); assay: Primary binding assay at non-sigma receptors: 5-HT2B; details: read-out: % Inhibition 5-HT2B
T1 construct: expressed in transfected cells
T1 sequence (P41595 whole entry, species assumed): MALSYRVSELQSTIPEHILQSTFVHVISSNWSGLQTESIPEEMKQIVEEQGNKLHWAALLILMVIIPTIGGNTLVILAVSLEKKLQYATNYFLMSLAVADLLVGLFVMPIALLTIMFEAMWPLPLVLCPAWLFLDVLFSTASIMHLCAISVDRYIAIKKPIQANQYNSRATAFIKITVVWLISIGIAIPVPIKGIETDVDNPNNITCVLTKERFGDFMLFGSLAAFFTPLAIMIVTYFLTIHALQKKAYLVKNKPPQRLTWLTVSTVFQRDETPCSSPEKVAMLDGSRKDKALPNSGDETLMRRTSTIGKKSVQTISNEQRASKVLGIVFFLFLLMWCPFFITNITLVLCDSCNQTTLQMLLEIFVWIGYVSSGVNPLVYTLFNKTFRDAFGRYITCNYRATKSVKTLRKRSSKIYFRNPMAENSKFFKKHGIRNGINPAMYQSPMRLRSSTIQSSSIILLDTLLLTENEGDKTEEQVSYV
Procedure: (§4) Initial primary binding screening assays were performed using a 50 μM (initial)−10 μM (final) assay concentration of reference and test compounds.

3βHSD2 = assay: Western blot, expression of 3βHSD2 in MA-10 cells; format: cell-based, mouse; details: any concentration
Procedure: as §1, §2, §3

5-HT2A [1] = target: T2, 5-HT2A (Homo sapiens, UniProt P28223); assay: Primary binding assay at non-sigma receptors: 5-HT2A; details: 10 μM (final) assay concentration
T2 construct: expressed in transfected cells
T2 sequence (P28223 whole entry): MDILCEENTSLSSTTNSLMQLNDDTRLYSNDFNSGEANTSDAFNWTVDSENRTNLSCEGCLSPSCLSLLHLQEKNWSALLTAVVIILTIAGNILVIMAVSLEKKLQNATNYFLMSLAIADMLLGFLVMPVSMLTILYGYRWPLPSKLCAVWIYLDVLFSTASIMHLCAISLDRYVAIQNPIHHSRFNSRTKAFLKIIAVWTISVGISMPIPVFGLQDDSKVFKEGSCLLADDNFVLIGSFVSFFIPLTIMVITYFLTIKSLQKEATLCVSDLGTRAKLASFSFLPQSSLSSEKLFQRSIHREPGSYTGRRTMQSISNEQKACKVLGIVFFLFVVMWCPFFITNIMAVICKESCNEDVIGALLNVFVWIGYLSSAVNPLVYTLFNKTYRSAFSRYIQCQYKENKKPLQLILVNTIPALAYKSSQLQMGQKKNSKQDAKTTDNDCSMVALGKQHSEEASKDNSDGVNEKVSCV
Procedure: as §4

Alpha2C = target: T3, Alpha2C (Homo sapiens, UniProt P18825); assay: Secondary binding assay, Ki determination: Alpha2C
T3 construct: expressed in transfected cells
T3 sequence (P18825 1-462): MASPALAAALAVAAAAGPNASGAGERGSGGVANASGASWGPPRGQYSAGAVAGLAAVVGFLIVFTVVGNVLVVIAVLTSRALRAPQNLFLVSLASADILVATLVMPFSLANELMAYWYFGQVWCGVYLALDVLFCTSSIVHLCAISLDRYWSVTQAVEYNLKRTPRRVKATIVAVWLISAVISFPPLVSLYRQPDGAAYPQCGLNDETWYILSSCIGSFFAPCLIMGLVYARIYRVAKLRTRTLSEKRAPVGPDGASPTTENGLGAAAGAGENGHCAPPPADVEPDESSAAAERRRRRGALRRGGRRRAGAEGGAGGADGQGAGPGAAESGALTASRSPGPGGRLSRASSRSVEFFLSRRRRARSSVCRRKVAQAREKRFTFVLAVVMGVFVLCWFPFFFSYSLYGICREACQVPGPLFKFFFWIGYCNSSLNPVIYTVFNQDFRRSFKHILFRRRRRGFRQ

[2] = system: mitochondria from steroidogenic MA-10 cells; assay: Metabolic conversion of [3H]pregnenolone to progesterone in isolated MA-10 mitochondria; format: biochemical, mouse
Procedure: as §1
To measure the conversion of [^3H]pregnenolone to [^3H]progesterone, isolated mitochondria from steroidogenic MA-10 cells (300 μg) were incubated in phosphate buffer along with the substrate, and the reaction was initiated by the NAD. For metabolic conversion of [^14C]cholesterol to pregnenolone, the reaction was initiated by the addition of NADPH, and for complete conversion we used 5-fold excess of cold carrier to reach the saturation point. The steroids were extracted with ether/acetone (9:1 v/v), and equal amounts of a cold pregnenolone-progesterone (50:50; Sigma, St. Louis, Mo.) mixture in CH2C12 was added as a carrier. The extracts were concentrated under a stream of nitrogen or air and then separated by thin-layer chromatography (TLC) (Whatman, Clifton, N.J.) using a chloroform/ethyl acetate (3:1) mobile phase.
Given the potential role of σ1 in steroidogenesis (FIG. 4A), we performed conversion assays in the presence of three sigma receptor ligands. […] The possibility exists that the σ1 receptor transiently interacts with the OMM-associated porins. As such, the increased levels of σ1 receptor with KSCM-11 may enhance the transport of substrate cholesterol into the mitochondria, thereby increasing progesterone synthesis.

[3] = Cell viability assay (MTT) in MA-10 cells; format: cell-based, mouse; details: mouse, MA-10 Leydig cells, read-out: decrease in cell viability
Procedure: as §1
Stock solutions (1 mM) of the ligands were made in 1× phosphate buffered saline, filter-sterilized, and then further diluted up to 1 μM with serum-free medium. Cell viability was determined by the 3-[4,5-dimethylthiazol-2yl]-2,5-diphenyltetrazolium bromide assay using a commercially available kit following the manufacturer's instructions (Promega, Madison, Wis.). MA-10 cells were plated in a 96-well plate at an initial density of 4×10^3 cells per well for 24 h at 37° C. in 5% CO2 atm. After 24 h of serum starvation, the culture media were changed to serum-free media containing 1, 5, 10, 50, and 100 nM concentration for each KSCM ligand. Next, the cells were incubated for 2 to 3 h with 0.5 mg/ml of 3-[4,5-dimethylthiazol-2yl]-2,5-diphenyltetrazolium bromide reagent and lysed with dimethyl sulfoxide, and the absorbance was measured at 550 nm (FlexStation 3; Molecular Devices, Sunnyvale, Calif.).

StAR = assay: Western blot, expression of StAR in MA-10 cells; format: cell-based, mouse
Procedure: as §1, §2
The role of KSCM ligands on the expression of StAR in MA-10 cells was evaluated. In all the cases studied, both the 37-kDa unimported and the 30-kDa mitochondrial-imported, mature protein, were observed but not the 32-kDa transient intermediate protein. The same membrane was probed first with StAR antibody and then with β-actin antibody independently. […] Coimmunoprecipitation experiments were performed to determine whether there was a direct interaction between σ1 receptor and StAR or VDAC2. […] StAR is a 37-kDa protein and thus it is higher than the 28-kDa σ1 (FIG. 5A), confirming that StAR interaction with the σ1 receptor.

5-HT2A [4] = target: T2, 5-HT2A; assay: Secondary binding assay, Ki determination: 5-HT2A
[5] = higher concentrations than 10 nM

SMILES	expression of VDAC2 (in words) (VDAC2)	inhibition at 10 µM (5-HT2B; primary binding assay, 10 μM (final) assay concentration) [%]	level of 3βHSD2 (in words) (3βHSD2)	inhibition at 10 µM (5-HT2A [1]) [%]	Ki (Alpha2C) [nM]	effect on progesterone conversion (in words) ([2]; 10 nM)	effect on progesterone conversion (in words) [2, 5]	cytotoxicity at 24 h, 1 nM [3] [%]	cytotoxicity at 24 h, 100 nM [3] [%]	expression of imported 30-kDa StAR (in words) (StAR)	expression of unimported 37-kDa StAR (in words) (StAR)	Ki (5-HT2A [4]) [nM]	inhibition at 10 µM (5-HT2B) [%]	cytotoxicity at 24 h ([3]; 1-5 nM) [%]
Cc1c(C(=O)N(CCCN2CCCCC2)c2ccccc2)oc2ccccc12 [KSCM-5, 3-Methyl-N-phenyl-N-(3-(piperidin-1-yl)propyl)benzofuran-2-carboxamide]	decreased with increasing concentrations	69.2	no change	18.1	249	no effect	conversion decreased significantly	28	74	unchanged	not and unchanged	–	–	–
COc1ccc2c(C)c(C(=O)N(CCCN3CCCCC3)c3ccccc3)oc2c1 [KSCM-11, 6-Methoxy-3-methyl-N-phenyl-N-(3-(piperidin-1-yl)propyl)benzofuran-2-carboxamide]	decreased with increasing concentrations	–	no change	61.2	–	no effect	conversion decreased significantly	–	–	unchanged	not and unchanged	2770	93.9	3.3
COc1cc2oc(C(=O)N(CCCN3CCCCC3)c3ccccc3)c(C)c2cc1OC [KSCM-1, 5,6-Dimethoxy-3-methyl-N-phenyl-N-(3-(piperidin-1-yl)propyl)benzofuran-2-carboxamide]	increased with increasing concentrations	–	no change	76.6	1540	–	reduced conversion to the basal level	3.5	16	unaffected	increased (and/or stabilized); also recorded: stabilizes the expression of unimported StAR	2560	43.8	–
